Measurements from US20170105960A1, “Prodrugs of Succinic Acid for Increasing ATP Production” (NEUROVIVE PHARMACEUTICAL AB, priority 2014, published 2017).
“Also recorded” adds a separate entry of the source.

Key:
[1] = test system: cells with inhibited respiratory complex I; assay: Screening assay 1: enhancement of mitochondrial energy producing function in cells with inhibited respiratory complex I; assay type: cell-based, human; parameters: key: The response in each parameter is graded either +, ++ or +++ in increasing order of potency; The response in each parameter is graded either +, ++ or +++ in increasing order of potency; The response in each parameter is graded either +, ++ or +++ in increasing order of potency; (+): Brackets [( )] indicate an intermediate effect, i.e. (+++) is between ++ and +++; conditions: increase in mitochondrial oxygen consumption in cells with inhibited complex I
Description: (§1) Measurement of mitochondrial respiration is performed in a high-resolution oxygraph (Oxygraph—2k, Oroboros Instruments, Innsbruck, Austria) at a constant temperature of 37° C. Isolated human platelets, white blood cells, fibroblasts, human heart muscle fibers or other cell types containing live mitochondria are suspended in a 2 mL glass chamber at a concentration sufficient to yield oxygen consumption in the medium of ≧10 pmol O2 s^−1 mL^−1.
Cells are placed in a buffer containing 110 mM sucrose, HEPES 20 mM, taurine 20 mM, K-lactobionate 60 mM, MgCl2 3 mM, KH2PO4 10 mM, EGTA 0.5 mM, BSA 1 g/l, pH 7.1. […] Compounds dissolved in DMSO are titrated in a range of 10 μM to 10 mM final concentration. Subsequently, cell membranes are permeabilised with digitonin (1 mg/1*10^6 plt) to allow entry of extracellularly released energy substrate or cell impermeable energy substrates. After stabilized respiration, Succinate 10 mM is added as a reference to enable respiration downstream of complex I. After the respiration stabilized the experiment is terminated by addition of Antimycin at final concentration 1 μg/mL and any residual non-mitochondrial oxygen consumption is measured. An increase in respiration rate in the described protocol is tightly coupled to ATP synthesis by oxidative phosphorylation unless cells are uncoupled (i.e. proton leak without production of ATP). […]

[2] = test system: intact cells; assay: Screening assay 3: assay to assess uncoupling in intact cells (high-resolution respirometry); assay type: cell-based, human; parameters: key: The response in each parameter is graded either +, ++ or +++ in increasing order of potency; The response in each parameter is graded either +, ++ or +++ in increasing order of potency; The response in each parameter is graded either +, ++ or +++ in increasing order of potency; (+): Brackets [( )] indicate an intermediate effect, i.e. (+++) is between ++ and +++; conditions: for Convergent (Routine): increase in mitochondrial oxygen consumption induced by the compound, screening assay 3, 1 mM compound; for Uncoupling: level of oxygen consumption after addition of oligomycin, screening assay 3
Description: In the third protocol, the same buffer as described above is used. […] Subsequently, the ATP-synthase-inhibitor Oligomycin is added. A reduction in respiration is a measure of how much of the oxygen consumption that is coupled to ATP synthesis. No, or only a slight, reduction indicate that the compound is inducing a proton leak over the inner mitochondrial membrane. The uncoupler FCCP is then titrated to induce maximum uncoupled respiration. […] The experiment is terminated by the addition of 1 μg/mL of the complex III inhibitor Antimycin to measure non-mitochondrial oxygen consumption.

[3] = test system: intact cells; assay: Screening assay 2: enhancement and inhibition of mitochondrial energy producing function in intact cells (FCCP uncoupled); assay type: cell-based, human; parameters: key to Convergent (FCCP): The response in each parameter is graded either +, ++ or +++ in increasing order of potency; The response in each parameter is graded either +, ++ or +++ in increasing order of potency; The response in each parameter is graded either +, ++ or +++ in increasing order of potency; (+): Brackets [( )] indicate an intermediate effect, i.e. (+++) is between ++ and +++; conditions: for Convergent (FCCP): increase in mitochondrial oxygen consumption, screening assay 2, uncoupled conditions; for Toxicity: lowest concentration during compound titration at which a decrease in oxygen consumption is seen, screening assay 2
Description: as §1
In the second protocol the same buffer is used as described above. After basal respiration is established, the mitochondrial uncoupler FCCP is added at a concentration of 2 nM to increase metabolic demand.

[4] = test system: Intact human blood cells with inhibited complex I; assay: Screening assay 4: enhancement of mitochondrial energy producing function in cells with inhibited respiratory complex I in human plasma; assay type: cell-based; parameters: key: The response in each parameter is graded either +, ++ or +++ in increasing order of potency; The response in each parameter is graded either +, ++ or +++ in increasing order of potency; The response in each parameter is graded either +, ++ or +++ in increasing order of potency; (+): Brackets [( )] indicate an intermediate effect, i.e. (+++) is between ++ and +++; conditions: increase in mitochondrial oxygen consumption
Description: as §1
Intact human blood cells are incubated in plasma from the same donor. […] Compounds dissolved in DMSO are titrated in a range of 10 μM to 10 mM final concentration. The experiment is terminated by addition of Antimycin at final concentration 1 μg/mL and any residual non-mitochondrial oxygen consumption is measured.

[5] = test system: intact cells; assay: Assays exemplified for enhancement of mitochondrial energy producing function (not specified which); assay type: cell-based, human
Description: An increase in respiration rate in the described protocol is tightly coupled to ATP synthesis by oxidative phosphorylation unless cells are uncoupled (i.e. proton leak without production of ATP). Uncoupling is tested for by addition of the ATP synthase inhibitor oligomycin (1-2 μg mL^−1) in a protocol 3 where the extent of uncoupling corresponds to the respiratory rate following oligomycin addition. In the second protocol the same buffer is used as described above. […] In the third protocol, the same buffer as described above is used. […] Subsequently, the ATP-synthase-inhibitor Oligomycin is added. A reduction in respiration is a measure of how much of the oxygen consumption that is coupled to ATP synthesis. No, or only a slight, reduction indicate that the compound is inducing a proton leak over the inner mitochondrial membrane. The uncoupler FCCP is then titrated to induce maximum uncoupled respiration. […] The experiment is terminated by the addition of 1 μg/mL of the complex III inhibitor Antimycin to measure non-mitochondrial oxygen consumption. Intact human blood cells are incubated in plasma from the same donor. […] The experiment is terminated by addition of Antimycin at final concentration 1 μg/mL and any residual non-mitochondrial oxygen consumption is measured.

[6] = test system: intact human platelets; assay: Intervention on rotenone- or metformin-induced lactate production with cell-permeable succinate prodrugs; assay type: cell-based; conditions: for effect on metformin-induced lactate production: 10 mM metformin, consecutive additions of 250 μM each 30 minutes; for effect on rotenone-induced lactate production: rotenone 2 μM, repeated additions of 250 μM each 30 minutes
Description: (§2) Lactate levels are determined every 2 h using the Lactate Pro™ 2 blood lactate test meter (Arkray, Alere AB, Lidingö, Sweden) or similar types of measurements. Incubation is performed at 37° C. pH is measured at start, after 4 and after 8 h (or more frequently) of incubation using a Standard pH Meter, e.g. PHM210 (Radiometer, Copenhagen, Denmark). Drug candidates are added to the assay from start or following 30-60 min at concentrations within the range 10 μM-5 mM. […] In order to evaluate the specificity of the drug candidate, it is also tested in combination with a down-stream inhibitor of respiration such as the complex III inhibitor Antimycin at 1 μg/mL, which should abolish the effect of the drug candidate and restore the production of lactate. The use of antimycin is therefore also a control for undue effects of drug candidates on the lactate producing ability of the cells used in the assay.
Lactate levels were measured in intervals of 30 min with the onset of the experiment.

[7] = test system: permeabilized human peripheral blood mononuclear cells; assay: Mitochondrial respiration in permeabilized human PBMCs (respirometry); assay type: cell-based; conditions: PBMC, read-out: IC50 (OXPHOSCI respiration)
Description: Real-time respirometric measurements were performed using high-resolution oxygraphs (Oxygraph-2k, Oroboros Instruments, Innsbruck, Austria). The experimental conditions during the measurements were the following: 37° C., 2 mL active chamber volume and 750 rpm stirrer speed. […] Settings, daily calibration and instrumental background corrections were conducted according to the manufacturer's instructions. […] All measurements were performed at a platelet concentration of 200×10^6 cells per mL or a PBMC concentration of 5×10^6 cells per mL. […] Maximal uncoupled respiratory electron transport system capacity supported by convergent input through complex I and […] ) was evaluated by subsequent titration with the protonophore carbonyl-cyanide p-(trifluoromethoxy) phenylhydrazone (FCCP). […] The complex III inhibitor antimycin (1 μg mL^-1) was then given to reveal residual oxygen consumption (ROX). […] Complex IV activity was calculated by subtracting the sodium azide value from the TMPD value. With exception of complex IV activity, all respiratory states were measured at steady-state and corrected for ROX. Complex IV activity was measured after ROX determination and not at steady-state.

[8] = test system: intact human platelets; assay: Mitochondrial respiration in intact human platelets (respirometry); assay type: cell-based; conditions: for routine respiration change after 60 min: compared to first measurement after addition
Description: (§3) Lactate production of intact human platelets was determined in PBS containing 10 mM glucose.
Routine respiration was followed for 60 min at 37° C. before the ATP-synthase inhibitor oligomycin (1 μg mL^−1) was added to assess LEAK respiration. Maximal uncoupled respiratory electron transport system capacity supported by endogenous substrates (ETS) was reached by titration of FCCP.

[9] = test system: intact PBMCs; assay: Lactate release of intact PBMCs; assay type: cell-based, human; conditions: 10 mM metformin, data not shown
[10] = test system: permeabilized human platelets
Description: as §3
Subsequently the FADH2-linked substrate succinate (10 mM) was given to determine convergent complex I- and II-dependent OXPHOS capacity (OXPHOSCI+II). […] Finally, the artificial complex IV substrate N,N,N′,N′-tetramethyl-p-phenylenediamine dihydrochloride (TMPD, 0.5 mM) was added and the complex IV inhibitor sodium azide (10 mM) was given to measure complex IV activity and chemical background, respectively.

[11] = test system: intact human platelets; assay: Lactate production and pH of intact human platelets; assay type: cell-based; conditions: metformin 1 and 10 mM, phenformin 0.5 mM, rotenone 2 μM
Description: as §2
Incubation was performed at 37° C. at a stirrer speed of 750 rpm, and pH was measured at start, after 4 and after 8 h of incubation (n=4) using a PHM210 Standard pH Meter (Radiometer, Copenhagen, Denmark).

[12] = 10 mM metformin plus prodrug, 250 μM each 30 minutes

SMILES: CC(=O)OC(CCCOC(=O)CCC(=O)O)OC(=O)CCC(=O)O (stereo not shown) [01-134]
- CII [1]: (+)
- Convergent (Routine) [2]: ++
- Uncoupling [2]: (+)
- Convergent (FCCP) [3]: (+)
- Toxicity [3]: 10 mM
- CII (plasma) [4]: (+)

SMILES: CC(=O)OC(CCCN1C(=O)c2ccccc2C1=O)OC(=O)CCC(=O)O (stereo not shown) [01-150, 4-(1-acetoxy-4-(1,3-dioxoisoindolin-2-yl)butoxy)-4-oxobutanoic acid]
- CII [1]: ++
- Convergent (Routine) [2]: +++
- Uncoupling [2]: (+)
- Convergent (FCCP) [3]: +
- Toxicity [3]: 2 mM
- CII (plasma) [4]: (+)

SMILES: CCOC(=O)CCC(=O)OCC [Diethyl succinate]
- activity in the assays exemplified [5]: inactive

SMILES: CC(=O)OCOC(=O)CCC(=O)OCOC(C)=O [NV118]
- rate of lactate production [6, 12]: 0.43 mmol lactate (200·10^9 trc·h)^−1
- effect on metformin-induced lactate production [6]: significantly decreased
- effect on rotenone-induced lactate production [6]: attenuated

SMILES: CC(=O)OC(C)OC(=O)CCC(=O)OC(C)OC(C)=O (stereo not shown) [NV189]
- rate of lactate production [6, 12]: 0.55 mmol lactate (200·10^9 trc·h)^−1
- effect on metformin-induced lactate production [6]: significantly decreased
- rate of lactate production ([6]; rotenone 2 μM plus antimycin 1 μg/mL plus prodrug): 0.89 mmol lactate (200·10^6trc·h)^−1
- effect on rotenone-induced lactate production [6]: attenuated; also recorded: brought back to normal

SMILES: CC(=O)OCOC(=O)CCC(=O)OC(C)OC(C)=O (stereo not shown) [NV241]
- rate of lactate production [6, 12]: 0.43 mmol lactate (200·10^9 trc·h)^−1
- effect on metformin-induced lactate production [6]: significantly decreased
- effect on rotenone-induced lactate production [6]: attenuated

SMILES: COC(=O)CCC(=O)OC [dimethyl succinate]
- activity in the assays exemplified [5]: inactive

SMILES: CN(C)C(=N)N=C(N)N [metformin]
- IC50 [7]: 450 µM
- routine respiration change after 60 min ([8]; 1 mM): −17.27%
- routine respiration reduction after whole blood incubation ([8]; 1 mM, whole blood incubated over 18 h before platelet isolation): 30.49%
- routine respiration change after 60 min ([8]; 10 mM): −28.61%
- routine respiration change after 15 min compared to control ([8]; 100 mM, 15 min of exposure): −39.77%
- routine respiration change after 60 min ([8]; 100 mM): −81.78%
- lactate release [9]: increased lactate release

SMILES: COC(=O)CCC(=O)O [monomethyl succinate]
- activity in the assays exemplified [5]: inactive

SMILES: [H]/N=C(/N)N/C(=N/[H])NCCc1ccccc1 [phenformin]
- ETSCII capacity and complex IV activity ([10]; compared to controls): not ETSCII or respiration specific to complex IV
- fold more potent inhibition of OXPHOSCI than metformin ([10]; phenformin versus metformin): 20 fold
- IC50 ([10]; read-out: IC50 (OXPHOSCI respiration), complex I substrates): 58 µM
- lactate production over 8 h compared to control [11]: significantly more lactate

SMILES: O=C(O)CCC(=O)O [succinate, reference compound]
- effect on metformin-induced lactate production [6]: did not reduce the metformin-induced production of lactate; also recorded: did not change this
